In US10555915B2, “Methods for treating acute acoustic trauma” (Hough Ear Institute, priority 2009, dated 2020):

Assays:
AAT-induced hearing loss [1] = experiment: Chinchilla AAT model, oral treatment, ABR threshold shift; assay type: in vivo, chinchilla laniger
Experimental: The treatments were administered a total of five times including one dose 4 hours post-AAT, and two doses daily on days 1 and 2 post AAT.
Hearing was assessed as auditory brainstem response (ABR) which was measured at between 1 and 3 days prior to AAT and at one or more of the following time points post AAT: 1 hr, 8 hr, 24 hr 7 day and 21 days. The 21 day test point was considered the permanent threshold shift (PTS). ABR recordings were performed under light ketamine (20 mg/kg) and xylazine (1 mg/kg) anesthesia. Small supplemental doses (⅓ of initial dose) were given if needed. ABR thresholds were recorded from subcutaneous needle electrodes placed under the skin of the head. […] Auditory stimuli was generated using a computer-aided system (Intelligent Hearing Systems, Miami, Fla.) coupled to high frequency transducers. Acoustic stimuli were tone pips (5 ms duration and 1 ms Blackman rise and fall) at frequencies of 0.5, 1, 2, 4, 6, 8, and 16 kHz. All acoustic stimuli were transduced through the computer-controlled attenuator to a 3A insert earphone [Etyniotic Research (ER)-3A, Etymotic Research Inc., Elk Grove Village, Ill.] placed about 5 mm from the tympanic membrane. The insert earphone was calibrated with a coupler mounted to the sound level meter approximating its placement. The electrical responses obtained from the electrodes were amplified (×100,000), filtered (100-3,000 Hz), and digitized through an A/D converter on a signal processing board. They were averaged at a sample rate of 1024 for each level.
Hearing thresholds were tested in 10 dB descending steps until near the threshold, and then 5 dB ascending steps were taken to determine the threshold. Threshold was defined as the midpoint between the lowest level of a clear response and the next level where no response was observed. The threshold shift refers to the difference in threshold prior to and following AAT. The investigators performing the ABR measurements were blinded as to the identity of the animal groups.
Statistically significant differences in threshold shifts were tested via ANOVA (SPSS 14.0 for Windows).

AAT-induced hearing loss [2] = experiment: Chinchilla AAT model, NAC intraperitoneal, ABR threshold shift; assay type: in vivo; settings: FIG. 3; for threshold shift at 21 days following AAT exposure: p<0.05
Experimental: For the experiments and examples described herein, the following methods were generally employed except for those described with respect to FIG. 5. Female adult chinchilla laniger (Mouton Chinchilla Ranch, Rochester, Minn.) weighing 500-850 grams were placed, two at a time, in two small wire restraint cages on a wooden plate where the AAT was induced by a 105 dB SPL octave-band noise centered at 4 kHz for 6 hours in a sound isolation booth [Industrial Acoustics Company (IAC), New York, N.Y.]. The noise was digitally generated by a Tucker Davis Technologies (TDT, Alachua, Fla.) device and passed through a real time attenuator (TDT, RP2), filtered, amplified with a preamplifier (QSC audio power, Costa Mesa, Calif.), and transduced with a high frequency acoustic driver and an acoustic speaker (JBL 2350, Northridge, Calif.) suspended from the ceiling of the sound booth which is placed directly above the wire cages. Before noise exposure, the sound spectrum output of the system was calibrated with a sound level meter centered at an octave bandwidth of 4 kHz. A condenser microphone (B&K 2804, Norcross, Ga.) coupled to the preamplifier was placed between the two wire cages at the level of the animals' heads to monitor the noise level. During noise exposure, the noise level was continually and visually monitored using the PULSE software system [B&K Sound & Vibration Measurement (version 10.0), Norcross, Ga.] including FFT Analysis Type 7770 and CPB Analysis 7771. […]
Hearing was assessed as auditory brainstem response (ABR) which was measured at between 1 and 3 days prior to AAT and at one or more of the following time points post AAT: 1 hr, 8 hr, 24 hr 7 day and 21 days. […] ABR thresholds were recorded from subcutaneous needle electrodes placed under the skin of the head. […]

Compound	average threshold shift at each individual frequency (0.5, 1, 2, 4, 6 and 8 kHz) (AAT-induced hearing loss [1]; 300 mg/kg oral, compared to control, FIG. 2)	average threshold shift across all frequencies tested (AAT-induced hearing loss [1]; 21 days post AAT, 300 mg/kg oral, five doses from 4 hours post-AAT, compared to control animals, FIG. 1)	average threshold shift for each individual frequency tested (AAT-induced hearing loss [1]; 21 days post AAT, oral, 300 mg/kg HPN-07 alone or + 300 mg/kg NAC, vs control (10% sucrose), FIG. 4A)	combined average threshold shift from 2 kHz to 8 kHz (AAT-induced hearing loss [1]; 21 days post AAT, oral, vs control, FIG. 4B)	outer hair cell loss (AAT-induced hearing loss [1]; expected in view of ABR data, compared to the control group)	protection from hearing loss due to AAT (AAT-induced hearing loss [1]; oral administration to chinchillas exposed to AAT, summary statement)	threshold shift at 21 days following AAT exposure (AAT-induced hearing loss [2]; 100 mg/kg NAC i.p.)	threshold shift at 21 days following AAT exposure (AAT-induced hearing loss [2]; 200 mg/kg NAC i.p.)	threshold shift soon after treatment (AAT-induced hearing loss [2]; NAC i.p. 4 hours post AAT)
CC(C)(C)[N+]([O-])=Cc1ccc(S(=O)(=O)O)cc1S(=O)(=O)O [HPN-07, 2,4-disulfonyl α-phenyl tertiary butyl nitrone]	most pronounced effect of HPN-07 occurred at 0.5, 1, 6 and 8 kHz, while the effect was less prominent at 2 and 4 kHz	significantly decreased average threshold shift	significant reduction in threshold shift at 0.5, 1, 4 and 6 kHz	overall significant reduction in threshold shift	statistically significant reduction in outer hair cell loss	significantly protected them from hearing loss			
CC(=O)N[C@@H](CS)C(=O)O [NAC, N-acetylcysteine]							significant decrease in threshold shift	significant decrease in threshold shift	mild effect on threshold shift
